The assay has as its target T1, PRMT5 (Homo sapiens, UniProt O14744).
T1 construct: endogenous in cells; host or cells: MCF-7
The assay is described as follows: PRMT5 Cell Target Engagement (TE) Assay. It is filed as cell-based. The settings on record: MCF-7 cells, 3 days treatment, nuclear SDMA by high content imaging. An excerpt: The PRMT5 TE assay is a biomarker assay for identifying compounds that inhibit symmetric dimethylation of arginine (SDMA) of PRMT5 substrates. The following substrates have been reported for PRMT5: Histone H2A and H4 R3, Histone H3 R2, Histone H3 R8, spliceosome Sm proteins, ribosomal protein RPS10, p53, FEN1, nucleoplasmin, nucleolin, EGFR and EBNA. The assay will focus on detecting symmetrically dimethylated nuclear proteins using high content imaging technology. Detection of the expression of symmetrically dimethylated nuclear proteins is through a mixture of primary rabbit monoclonal antibodies to SDMA (CST 13222), which in turn recognized by an Alexafluor 488 dye-conjugated anti-rabbit IgG secondary antibody. The IN Cell Analyzer 2200 or Opera-Phenix measures nuclear Alexafluor 488 fluorescent dye intensity that is directly related to the level of expression of symmetrically dimethylated nuclear proteins at the single cell level. Nuclear AF488 dye intensities are compared to the mean value for DMSO treated cells (MIN) to report percent of inhibition for each compound-treated well.
In this assay, the cell potency (EC50) of each compound was determined from a ten point (1:3 serial dilution; top compound concentration of 10000 nM) titration curve using the following outlined procedure. Each well of a BD falcon collagen coated black/clear bottom 384-well plate was seeded with 4000 MCF-7 cells in 30 μl media and allowed to attach for 5 hours. Media is ATCC-formulated Eagle's Minimum Essential Medium, Catalog No. 30-2003. The following components were added to the base medium: 0.01 mg/mL human recombinant insulin; fetal bovine serum to a final concentration of 10%. Additional 30 μl of media containing 2× compounds were added to each well. Cells were treated for 3 days in 37° C. CO2 incubator. On day 3, cells were fixed with Cytofix, permeabilized with 0.4% Triton-X-100/Cytofix, and washed with D-PBS without Ca/Mg. Cells were blocked with Licor Odessey blocking reagent for 1 hour at room temperature, followed by incubation with anti-SDMA (1:1000) antibody at 4° C. overnight. 1° antibody was removed, followed by three washings with DPBS without Ca/Mg and 0.05% Tween20. Hoechst (5 μg/mL), Cell Mask deep stain (1:2000) and Alexa488-conjugated goat anti-rabbit IgG (2 μg/mL) was added for 1 hour at room temperature. A final washing step (three washes) was performed before sealing plate for imaging on In Cell Analyzer 2200 or Opera-Phenix. Images from analyzer were uploaded to Columbus for image analysis. IC50 values were determined by 4 parameters robust fit of percent fluorescence units vs. (Log10) compound concentrations.
T1 sequence (O14744 whole entry): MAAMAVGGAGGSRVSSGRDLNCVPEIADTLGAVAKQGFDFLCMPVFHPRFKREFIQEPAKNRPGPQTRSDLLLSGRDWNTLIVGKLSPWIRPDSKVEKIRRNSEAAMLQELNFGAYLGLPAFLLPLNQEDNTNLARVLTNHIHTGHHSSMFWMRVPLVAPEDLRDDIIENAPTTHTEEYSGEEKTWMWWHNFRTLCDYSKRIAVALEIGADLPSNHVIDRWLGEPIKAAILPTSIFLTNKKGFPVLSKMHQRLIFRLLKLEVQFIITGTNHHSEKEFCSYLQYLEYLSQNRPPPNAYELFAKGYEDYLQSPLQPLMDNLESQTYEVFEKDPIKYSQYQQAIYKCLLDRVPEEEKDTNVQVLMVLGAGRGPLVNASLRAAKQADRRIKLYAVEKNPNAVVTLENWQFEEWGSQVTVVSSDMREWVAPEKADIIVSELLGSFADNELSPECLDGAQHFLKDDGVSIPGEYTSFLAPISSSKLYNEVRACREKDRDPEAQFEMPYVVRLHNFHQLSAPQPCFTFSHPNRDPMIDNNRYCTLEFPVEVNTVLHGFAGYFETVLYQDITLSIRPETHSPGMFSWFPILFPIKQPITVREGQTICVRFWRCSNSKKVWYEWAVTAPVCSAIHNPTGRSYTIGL
T1 sequence (Q9BQA1 whole entry partner): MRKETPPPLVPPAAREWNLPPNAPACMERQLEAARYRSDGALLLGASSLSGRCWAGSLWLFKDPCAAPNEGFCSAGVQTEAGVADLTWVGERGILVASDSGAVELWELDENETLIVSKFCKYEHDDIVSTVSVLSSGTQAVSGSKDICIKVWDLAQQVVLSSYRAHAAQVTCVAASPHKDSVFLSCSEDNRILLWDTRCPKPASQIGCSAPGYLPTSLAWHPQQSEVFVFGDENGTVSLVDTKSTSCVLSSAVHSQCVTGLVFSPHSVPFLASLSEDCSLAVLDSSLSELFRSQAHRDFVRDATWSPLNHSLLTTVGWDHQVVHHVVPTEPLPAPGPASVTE
One may read the EC50 as the concentration giving half of the maximal effect. Low values mean higher potency in that assay, high ones lower potency in that assay. `C[C@@]1(O)[C@@H]([C@H](O)c2cc(C(F)F)ccn2)O[C@@H](n2ccc3c(N)ncnc32)[C@@H]1O` [Example 72, 7-{(5R)-5-C-[4-(difluoromethyl)pyridin-2-yl]-3-C-methyl-beta-D-ribofuranosyl}-7H-pyrrolo[2,3-d]pyrimidin-4-amine] yielded an EC50 of 2060 nM.

On to `C[C@@]1(O)[C@@H]([C@H](O)c2cc(C(F)F)c(F)c3c2CNCC3)O[C@@H](n2ccc3c(N)ncnc32)[C@@H]1O` [Example 8, (2R,3S,4R,5R)-5-(4-amino-7H-pyrrolo[2,3-d]pyrimidin-7-yl)-2-((R)-(6-(difluoromethyl)-5-fluoro-1,2,3,4-tetrahydroisoquinolin-8-yl)(hydroxy)methyl)-3-methyltetrahydrofuran-3,4-diol], for which the 50% effective concentration (EC50) was 65 nM.

Regarding `C[C@@]1(O)[C@@H]([C@@H](O)c2cc(F)cc(F)c2F)O[C@@H](n2ccc3c(N)ncnc32)[C@@H]1O` [Example 53, 7-[(5S)-3-C-methyl-5-C-(2,3,5-trifluorophenyl)-beta-D-ribofuranosyl]-7H-pyrrolo[2,3-d]pyrimidin-4-amine], the midpoint of the response, the EC50, lay at 8960 nM.

Compound `C[C@@]1(O)[C@@H]([C@H](O)c2cc(F)cc(C(F)F)c2F)O[C@@H](n2ccc3c(N)ncnc32)[C@@H]1O` [Example 6, (2R,3S,4R,5R)-5-(4-amino-7H-pyrrolo[2,3-d]pyrimidin-7-yl)-2-((R)-(3-(difluoromethyl)-2,5-difluorophenyl)(hydroxy)methyl)-3-methyltetrahydrofuran-3,4-diol] displayed a concentration for a half-maximal effect (EC50) of 6.8 nM.

For `C[C@]1(O)[C@@H](O)[C@H](n2ccc3c(N)ncnc32)O[C@@H]1[C@](C)(O)c1cncc(C(F)F)c1` [Example 77, 7-{6-deoxy-5-C-[5-(difluoromethyl)pyridin-3-yl]-3-C-methyl-alpha-L-talofuranosyl}-7H-pyrrolo[2,3-d]pyrimidin-4-amine], it took 1330 nM to reach a half-maximal effect (EC50).

For the compound `COc1ccc([C@@H](O)[C@H]2O[C@@H](n3ccc4c(N)ncnc43)[C@H](O)[C@]2(C)O)cc1` [Example 32, 7-[(5R)-5-C-(4-methoxyphenyl)-3-C-methyl-beta-D-ribofuranosyl]-7H-pyrrolo[2,3-d]pyrimidin-4-amine], a half-maximal response (EC50) required 2740 nM.

On to `C[C@@]1(O)[C@@H]([C@H](O)c2ccc(F)c(C(F)F)c2F)O[C@@H](n2ccc3c(N)ncnc32)[C@@H]1O` [Example 67, 7-{(5R)-5-C-[3-(difluoromethyl)-2,4-difluorophenyl]-3-C-methyl-beta-D-ribofuranosyl}-7H-pyrrolo[2,3-d]pyrimidin-4-amine], for which the 50% effective concentration (EC50) was 435 nM.

As for `Cc1ncnc2c1ccn2[C@@H]1O[C@H]([C@](C)(O)c2cccc3c2CNCC3)[C@@](C)(O)[C@H]1O` [Example 88, (2R,3S,4R,5R)-2-((R)-1-hydroxy-1-(1,2,3,4-tetrahydroisoquinolin-8-yl)ethyl)-3-methyl-5-(4-methyl-7H-pyrrolo[2,3-d]pyrimidin-7-yl)tetrahydrofuran-3,4-diol], the response was half-maximal at 47 nM (EC50).

Compound `C[C@@]1(O)[C@@H]([C@@H](O)c2cc(F)c(F)c(F)c2)O[C@@H](n2ccc3c(N)ncnc32)[C@@H]1O` [Example 35, 7-[(5S)-3-C-methyl-5-C-(3,4,5-trifluorophenyl)-beta-D-ribofuranosyl]-7H-pyrrolo[2,3-d]pyrimidin-4-amine] registered a concentration for a half-maximal effect (EC50) above 10000 nM.

Turning to `C[C@@]1(O)[C@@H]([C@@H](O)c2cc(C(F)F)ccn2)O[C@@H](n2ccc3c(N)ncnc32)[C@@H]1O` [Example 73, 7-{(5S)-5-C-[4-(difluoromethyl)pyridin-2-yl]-3-C-methyl-beta-D-ribofuranosyl}-7H-pyrrolo[2,3-d]pyrimidin-4-amine], the EC50 was above 10000 nM.

As for `C[C@@]1(O)[C@@H]([C@H](O)c2ccc(F)c(F)c2F)O[C@@H](n2ccc3c(N)ncnc32)[C@@H]1O` [Example 50, 7-[(5R)-3-C-methyl-5-C-(2,3,4-trifluorophenyl)-beta-D-ribofuranosyl]-7H-pyrrolo[2,3-d]pyrimidin-4-amine], the EC50 was 3240 nM. That is a single-digit micromolar value.

On to `C[C@H](c1cc(F)cc(C(F)F)c1)[C@H]1O[C@@H](n2ccc3c(N)ncnc32)[C@H](O)[C@]1(C)O` (single isomer, unassigned) [Example 84], for which the midpoint of the response, the EC50, lay at 253 nM.

For the compound `Cc1ccccc1[C@H](O)[C@H]1O[C@@H](n2ccc3c(N)ncnc32)[C@H](O)[C@]1(C)O` [Example 41, 7-[(5S)-3-C-methyl-5-C-(2-methylphenyl)-beta-D-ribofuranosyl]-7H-pyrrolo[2,3-d]pyrimidin-4-amine], the EC50 was above 10000 nM.

The compound `C[C@@]1(O)[C@@H]([C@H](O)c2cccc(Cl)c2F)O[C@@H](n2ccc3c(N)ncnc32)[C@@H]1O` [Example 46, 7-[(5R)-5-C-(3-chloro-2-fluorophenyl)-3-C-methyl-beta-D-ribofuranosyl]-7H-pyrrolo[2,3-d]pyrimidin-4-amine] displayed an EC50 of 407 nM. This lies in the sub-micromolar range.

`Cc1ccc([C@H](O)[C@H]2O[C@@H](n3ccc4c(N)ncnc43)[C@H](O)[C@]2(C)O)cc1` [Example 31, 7-[(5S)-3-C-methyl-5-C-(4-methylphenyl)-beta-D-ribofuranosyl]-7H-pyrrolo[2,3-d]pyrimidin-4-amine] yielded a concentration giving a half-maximal response (EC50) above 10000 nM.

`C[C@@]1(O)[C@@H]([C@@H](O)c2ccc(Cl)cc2F)O[C@@H](n2ccc3c(N)ncnc32)[C@@H]1O` [Example 43, 7-[(5S)-5-C-(4-chloro-2-fluorophenyl)-3-C-methyl-beta-D-ribofuranosyl]-7H-pyrrolo[2,3-d]pyrimidin-4-amine] gave an EC50 above 10000 nM.

Regarding `Cc1cccc([C@H](O)[C@H]2O[C@@H](n3ccc4c(N)ncnc43)[C@H](O)[C@]2(C)O)c1` [Example 39, 7-[(5S)-3-C-methyl-5-C-(3-methylphenyl)-beta-D-ribofuranosyl]-7H-pyrrolo[2,3-d]pyrimidin-4-amine], the EC50 is above 10000 nM.

The compound `C[C@@]1(O)[C@@H]([C@H](O)c2ccc(F)c(F)c2)O[C@@H](n2ccc3c(N)ncnc32)[C@@H]1O` [Example 1, (2R,3S,4R,5R)-5-(4-amino-7H-pyrrolo[2,3-d]pyrimidin-7-yl)-2-((R)-(3,4-difluorophenyl)(hydroxy)methyl)-3-methyltetrahydrofuran-3,4-diol] gave an EC50 of 187 nM.

`C[C@]1(O)[C@@H](O)[C@H](n2ccc3c(N)ncnc32)O[C@@H]1[C@](C)(O)c1cc(C(F)F)ccn1` [Example 76, 7-{6-deoxy-5-C-[4-(difluoromethyl)pyridin-2-yl]-3-C-methyl-alpha-L-talofuranosyl}-7H-pyrrolo[2,3-d]pyrimidin-4-amine] came in with a 50% effective concentration (EC50) of 1200 nM. This EC50 is about 6.4-fold higher than that of the compound before.

In turn, `C[C@@]1(O)[C@@H]([C@@H](O)c2cc(F)cc(C(F)F)c2F)O[C@@H](n2ccc3c(N)ncnc32)[C@@H]1O` [Example 7, (2R,3S,4R,5R)-5-(4-amino-7H-pyrrolo[2,3-d]pyrimidin-7-yl)-2-((S)-(3-(difluoromethyl)-2,5-difluorophenyl)(hydroxy)methyl)-3-methyltetrahydrofuran-3,4-diol] gave a 50% effective concentration (EC50) of 6550 nM. This EC50 is about 5.5-fold higher than that of the compound before.

`COc1cccc([C@H](O)[C@H]2O[C@@H](n3ccc4c(N)ncnc43)[C@H](O)[C@]2(C)O)c1` [Example 37, 7-[(5S)-5-C-(3-methoxyphenyl)-3-C-methyl-beta-D-ribofuranosyl]-7H-pyrrolo[2,3-d]pyrimidin-4-amine] came in with an EC50 above 10000 nM.

As for `C[C@]1(O)[C@@H](O)[C@H](n2ccc3c(N)ncnc32)O[C@@H]1[C@@](C)(O)c1ccnc(C(F)F)c1` [Example 81, 7-{6-deoxy-5-C-[2-(difluoromethyl)pyridin-4-yl]-3-C-methyl-beta-D-allofuranosyl}-7H-pyrrolo[2,3-d]pyrimidin-4-amine], the EC50 is above 10000 nM.

`C[C@@]1(O)[C@@H]([C@@H](O)c2cc(F)cc(C(F)(F)F)c2)O[C@@H](n2ccc3c(N)ncnc32)[C@@H]1O` [Example 59, 7-{(5S)-5-C-[3-fluoro-5-(trifluoromethyl)phenyl]-3-C-methyl-beta-D-ribofuranosyl}-7H-pyrrolo[2,3-d]pyrimidin-4-amine] displayed an EC50 above 10000 nM.

On to `Cc1ncnc2c1ccn2[C@@H]1O[C@H]([C@H](O)c2cc(C(F)F)c(F)c3c2CNCC3)[C@@](C)(O)[C@H]1O` (single isomer, unassigned) [Example 89], for which the concentration for a half-maximal effect (EC50) is 76 nM.

In turn, `C[C@@]1(O)[C@@H]([C@H](O)c2cc(F)cc(F)c2F)O[C@@H](n2ccc3c(N)ncnc32)[C@@H]1O` [Example 52, 7-[(5R)-3-C-methyl-5-C-(2,3,5-trifluorophenyl)-beta-D-ribofuranosyl]-7H-pyrrolo[2,3-d]pyrimidin-4-amine] came in with an EC50 of 141 nM.
